Measured values taken from ChEMBL document CHEMBL3885881, “DrugMatrix”.

Species on record: Rattus norvegicus
Experiment: DrugMatrix - Regimen: Daily Repeat
Type: toxicity, organism-based, Sprague-Dawley
Parameters: regimen Daily Repeat, gender Male, age 6-8 weeks
Conditions: in vivo, po, route oral GAVAGE, vehicle .5 % CMC; for ABSOLUTE BASOPHIL / ABSOLUTE EOSINOPHIL / ABSOLUTE LYMPHOCYTE / ABSOLUTE MONOCYTE / ABSOLUTE SEGMENTED NEUTROPHIL / BASOPHIL / EOSINOPHIL / ERYTHROCYTE COUNT / HEMATOCRIT / HEMOGLOBIN / LEUKOCYTE COUNT / LYMPHOCYTE / MEAN CORPUSCULAR HEMOGLOBIN / MEAN CORPUSCULAR HEMOGLOBIN CONCENTRATION / MEAN CORPUSCULAR VOLUME / MONOCYTE / NEUTROPHIL / NUCLEATED RED BLOOD CELLS / PLATELET COUNT: tissue Blood; for ALANINE AMINOTRANSFERASE / ALBUMIN / ALKALINE PHOSPHATASE / ASPARTATE AMINOTRANSFERASE / BLOOD UREA NITROGEN / CARBON DIOXIDE / CHLORIDE / CHOLESTEROL / CREATINE PHOSPHOKINASE / CREATININE / GLUCOSE / LACTATE DEHYDROGENASE / LIPASE / PHOSPHORUS / POTASSIUM / SODIUM / TOTAL BILIRUBIN / TOTAL PROTEIN / URIC ACID: tissue Plasma
[1] = 1200 mg/kg, 120 h, dose level High, time 5 day
[2] = […], 72 h, dose 3.3 mg/Kg, dose level Low, time 3 day
[3] = […], 120 h, dose 3.3 mg/Kg, dose level Low, time 5 day

SMILES: CCC[C@@H]1C[C@@H](C(=O)N[C@@H]([C@H]2O[C@H](SC)[C@H](O)[C@@H](O)[C@H]2O)[C@@H](C)O)N(C)C1 [LINCOMYCIN]
- ABSOLUTE BASOPHIL [1]: 0 CELLS/uL
- ABSOLUTE EOSINOPHIL [1]: 0 CELLS/uL
- ABSOLUTE LYMPHOCYTE [1]: 15154 CELLS/uL
- ABSOLUTE MONOCYTE [1]: 0 CELLS/uL
- ABSOLUTE SEGMENTED NEUTROPHIL [1]: 1379.33 CELLS/uL
- BASOPHIL [1]: 0%
- EOSINOPHIL [1]: 0%
- ERYTHROCYTE COUNT [1]: 5.63 x10E6/uL
- HEMATOCRIT [1]: 35.37%
- HEMOGLOBIN [1]: 14.33 G/DL
- LEUKOCYTE COUNT [1]: 16.53 x10E3/uL
- LYMPHOCYTE [1]: 91.67%
- MEAN CORPUSCULAR HEMOGLOBIN [1]: 25.5 pg
- MEAN CORPUSCULAR HEMOGLOBIN CONCENTRATION [1]: 40.53 G/DL
- MEAN CORPUSCULAR VOLUME [1]: 62.9 fL
- MONOCYTE [1]: 0%
- NEUTROPHIL [1]: 8.33%
- NUCLEATED RED BLOOD CELLS [1]: 0 /100WBC
- PLATELET COUNT [1]: 1331 x10E3/uL
- ALANINE AMINOTRANSFERASE [1]: 58.33 u/L
- ALBUMIN [1]: 4.13 G/DL
- ALKALINE PHOSPHATASE [1]: 343.67 u/L
- ASPARTATE AMINOTRANSFERASE [1]: 92.33 u/L
- BLOOD UREA NITROGEN [1]: 18.33 mg/dL
- CARBON DIOXIDE [1]: 25 mmol/L
- CHLORIDE [1]: 100.67 MEQ/L
- CHOLESTEROL [1]: 73.67 mg/dL
- CREATINE PHOSPHOKINASE [1]: 558 u/L
- CREATININE [1]: 0.27 mg/dL
- GLUCOSE [1]: 137 mg/dL
- LACTATE DEHYDROGENASE [1]: 505.33 u/L
- LIPASE [1]: 12 u/L
- PHOSPHORUS [1]: 12.77 mg/dL
- POTASSIUM [1]: 6.92 MEQ/L
- SODIUM [1]: 143.1 MEQ/L
- TOTAL BILIRUBIN [1]: 0.17 mg/dL
- TOTAL PROTEIN [1]: 6.1 G/DL
- URIC ACID [1]: 1.63 mg/dL
- ABSOLUTE BASOPHIL [2]: 0 CELLS/uL
- ABSOLUTE EOSINOPHIL [2]: 46 CELLS/uL
- ABSOLUTE LYMPHOCYTE [2]: 14091.33 CELLS/uL
- ABSOLUTE MONOCYTE [2]: 108.67 CELLS/uL
- ABSOLUTE SEGMENTED NEUTROPHIL [2]: 1220.67 CELLS/uL
- BASOPHIL [2]: 0%
- EOSINOPHIL [2]: 0.33%
- ERYTHROCYTE COUNT [2]: 5.49 x10E6/uL
- HEMATOCRIT [2]: 34.5%
- HEMOGLOBIN [2]: 13.93 G/DL
- LEUKOCYTE COUNT [2]: 15.47 x10E3/uL
- LYMPHOCYTE [2]: 91%
- MEAN CORPUSCULAR HEMOGLOBIN [2]: 25.43 pg
- MEAN CORPUSCULAR HEMOGLOBIN CONCENTRATION [2]: 40.4 G/DL
- MEAN CORPUSCULAR VOLUME [2]: 63 fL
- MONOCYTE [2]: 0.67%
- NEUTROPHIL [2]: 8%
- NUCLEATED RED BLOOD CELLS [2]: 0 /100WBC
- PLATELET COUNT [2]: 1331.67 x10E3/uL
- ALANINE AMINOTRANSFERASE [2]: 53.67 u/L
- ALBUMIN [2]: 4.23 G/DL
- ALKALINE PHOSPHATASE [2]: 358.67 u/L
- ASPARTATE AMINOTRANSFERASE [2]: 85.33 u/L
- BLOOD UREA NITROGEN [2]: 15.67 mg/dL
- CARBON DIOXIDE [2]: 29.67 mmol/L
- CHLORIDE [2]: 101 MEQ/L
- CHOLESTEROL [2]: 72 mg/dL
- CREATINE PHOSPHOKINASE [2]: 274.33 u/L
- CREATININE [2]: 0.21 mg/dL
- GLUCOSE [2]: 154.67 mg/dL
- LACTATE DEHYDROGENASE [2]: 216.67 u/L
- LIPASE [2]: 9.67 u/L
- PHOSPHORUS [2]: 12.97 mg/dL
- POTASSIUM [2]: 7.32 MEQ/L
- SODIUM [2]: 144.13 MEQ/L
- TOTAL BILIRUBIN [2]: 0.2 mg/dL
- TOTAL PROTEIN [2]: 5.83 G/DL
- URIC ACID [2]: 2.13 mg/dL
- ABSOLUTE BASOPHIL [3]: 0 CELLS/uL
- ABSOLUTE EOSINOPHIL [3]: 0 CELLS/uL
- ABSOLUTE LYMPHOCYTE [3]: 14059.67 CELLS/uL
- ABSOLUTE MONOCYTE [3]: 0 CELLS/uL
- ABSOLUTE SEGMENTED NEUTROPHIL [3]: 1173.67 CELLS/uL
- BASOPHIL [3]: 0%
- EOSINOPHIL [3]: 0%
- ERYTHROCYTE COUNT [3]: 5.56 x10E6/uL
- HEMATOCRIT [3]: 34.53%
- HEMOGLOBIN [3]: 13.97 G/DL
- LEUKOCYTE COUNT [3]: 15.23 x10E3/uL
- LYMPHOCYTE [3]: 92.33%
- MEAN CORPUSCULAR HEMOGLOBIN [3]: 25.1 pg
- MEAN CORPUSCULAR HEMOGLOBIN CONCENTRATION [3]: 40.43 G/DL
- MEAN CORPUSCULAR VOLUME [3]: 62.13 fL
- MONOCYTE [3]: 0%
- NEUTROPHIL [3]: 7.67%
- NUCLEATED RED BLOOD CELLS [3]: 0 /100WBC
- PLATELET COUNT [3]: 1194.33 x10E3/uL
- ALANINE AMINOTRANSFERASE [3]: 57.33 u/L
- ALBUMIN [3]: 4.37 G/DL
- ALKALINE PHOSPHATASE [3]: 326 u/L
- ASPARTATE AMINOTRANSFERASE [3]: 107.67 u/L
- BLOOD UREA NITROGEN [3]: 17 mg/dL
- CARBON DIOXIDE [3]: 28 mmol/L
- CHLORIDE [3]: 100.33 MEQ/L
- CHOLESTEROL [3]: 76.67 mg/dL
- CREATINE PHOSPHOKINASE [3]: 786.33 u/L
- CREATININE [3]: 0.23 mg/dL
- GLUCOSE [3]: 160.67 mg/dL
- LACTATE DEHYDROGENASE [3]: 134.33 u/L
- LIPASE [3]: 9 u/L
- PHOSPHORUS [3]: 12.5 mg/dL
- POTASSIUM [3]: 6.98 MEQ/L
- SODIUM [3]: 144.77 MEQ/L
- TOTAL BILIRUBIN [3]: 0.17 mg/dL
- TOTAL PROTEIN [3]: 6.33 G/DL
- URIC ACID [3]: 2.3 mg/dL
